Here are results for six compounds from paper PMC9295122, “Sialic Acid Derivatives Inhibit SiaT Transporters and Delay Bacterial Growth” (ACS Chemical Biology, 2022).

As usually defined, the ΔTm is the change in melting temperature against a reference sample.

Test [1] deals with T1, PmSiaT (Proteus mirabilis, UniProt B4EZY7).
T1 construct: made in house
T1 sequence (B4EZY7 1-496): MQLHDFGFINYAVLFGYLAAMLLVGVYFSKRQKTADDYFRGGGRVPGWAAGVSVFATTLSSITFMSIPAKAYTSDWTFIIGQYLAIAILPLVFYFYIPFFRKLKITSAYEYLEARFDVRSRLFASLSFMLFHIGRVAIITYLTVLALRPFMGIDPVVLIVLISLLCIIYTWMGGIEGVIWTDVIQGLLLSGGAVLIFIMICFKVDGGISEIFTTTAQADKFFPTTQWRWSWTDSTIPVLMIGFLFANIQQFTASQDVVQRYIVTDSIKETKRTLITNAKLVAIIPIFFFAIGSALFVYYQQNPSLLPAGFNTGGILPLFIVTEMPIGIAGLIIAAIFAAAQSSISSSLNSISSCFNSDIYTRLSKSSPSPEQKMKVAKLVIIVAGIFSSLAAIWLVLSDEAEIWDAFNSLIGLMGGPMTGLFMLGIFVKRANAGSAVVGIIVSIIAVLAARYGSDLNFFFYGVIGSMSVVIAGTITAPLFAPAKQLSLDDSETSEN
Nature of the test: nanoDSF thermal shift assay, PmSiaT. It is filed as binding. To be noted: for Average 1 / Average 2 / Average 3 / Replicate 1 / Replicate 2 / Replicate 3: PmSiaT Tm; for Average 1: average of experiment 1; for Average 2: average of experiment 2; for Average 3: average of experiment 3; for Replicate 1: experiment 1, second capillary; for Replicate 2: experiment 2, second capillary; for Replicate 3: experiment 3, second capillary; for Tm 1: experiment 1, first capillary; for Tm2: experiment 2, first capillary; for Tm 3: experiment 3, first capillary; for ΔTm at 1250 µM: read-out: ΔTm average overall. How it is done: (§1) Nano-differential scanning fluorimetry (nanoDSF) is a high-throughput method that relies on the thermal stabilization of the folded protein state by a bound ligand.[33]
(§2) The melting points of protein–inhibitor complexes were measured on a Prometheus NT.48 instrument from NanoTemper Technologies. Solutions containing the protein at 2 μM in phosphate buffered saline with 0.0174% (w/v) dodecylmaltoside (DDM) and the ligand at 1.25 mM were loaded onto standard capillaries by NanoTemper. The temperature was increased from 25 to 95 °C at a ramp rate of 1 °C/min. The fluorescence was recorded at 330 and 350 nm and as a ratio of the two wavelengths.
(§3) The intensity ratio and its first derivative were calculated using manufacturer’s software (PR.ThermControl, version 2.1.2).
(§4) The melting temperatures have been measured in 3 separate experiments. In each experiment, two capillaries were included per compound, having therefore 2 technical replicates per experiment. In the table all data is presented. Tm1 and Replicate 1 represent the two replicates of the first experiment. Average 1 is the average between Tm 1 and Replicate 1. ΔTm 1 is the thermal shift when compared to the Tm of Neu5Ac. This is calculated from Average 1. The ΔTm presented in the article are the ΔTm average overall, which represent the overall average of the averages from the three experiments. The standard deviation (SD) is calculated from the […]
(In general: DSF heats the sample and reads unfolding from a dye or from intrinsic fluorescence.)

Test [2] deals with SaSiaT (Staphylococcus aureus, UniProt A0A0H2XJ46). Nature of the test: nanoDSF thermal shift assay, SaSiaT. It is filed as binding. The note with it: for Average 1 / Average 2 / Average 3 / Replicate 1 / Replicate 2 / Replicate 3: SaSiaT Tm; for Average 1: average of experiment 1; for Average 2: average of experiment 2; for Average 3: average of experiment 3; for Replicate 1: experiment 1, second capillary; for Replicate 1 / Replicate 2 / Replicate 3 / Tm 1 / Tm2 / Tm 3 / Overall average (Tm): 1.25 mM; for Replicate 2: experiment 2, second capillary; for Replicate 3: experiment 3, second capillary; for Tm 1 / Tm2 / Tm 3 / Overall average (Tm): SaSiaT; for Tm 1: experiment 1, first capillary; for Tm2: experiment 2, first capillary; for Tm 3: experiment 3, first capillary; for Overall average (Tm): three experiments. How it is done: as §1, §2, §3, §4
Chain of SaSiaT (A0A0H2XJ46 entry or part of it): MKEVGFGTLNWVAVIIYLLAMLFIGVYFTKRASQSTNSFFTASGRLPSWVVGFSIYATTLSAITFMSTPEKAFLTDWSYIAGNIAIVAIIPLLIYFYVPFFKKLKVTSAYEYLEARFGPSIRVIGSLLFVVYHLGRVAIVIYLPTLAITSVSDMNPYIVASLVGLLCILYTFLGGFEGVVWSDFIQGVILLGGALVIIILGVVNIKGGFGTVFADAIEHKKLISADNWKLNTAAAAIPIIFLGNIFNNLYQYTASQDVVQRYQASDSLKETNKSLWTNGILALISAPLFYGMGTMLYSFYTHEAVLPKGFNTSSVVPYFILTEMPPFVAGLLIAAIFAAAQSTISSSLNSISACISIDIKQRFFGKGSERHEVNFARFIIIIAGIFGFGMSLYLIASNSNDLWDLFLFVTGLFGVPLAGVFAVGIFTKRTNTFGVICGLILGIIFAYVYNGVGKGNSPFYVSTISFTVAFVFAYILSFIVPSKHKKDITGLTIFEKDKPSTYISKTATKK

Where [3] appears, read: PmSiaT, experiment 1, vs Neu5Ac, read-out: ΔTm 1.
[4] abbreviates: PmSiaT, experiment 2, vs Neu5Ac, read-out: ΔTm 2.
Setting [5] is: PmSiaT, experiment 3, vs Neu5Ac, read-out: ΔTm 3.
[6] abbreviates: PmSiaT, three experiments, 1.25 mM.
The mark [7] stands for this setting: PmSiaT, three experiments, vs Neu5Ac, 1.25 mM.

Read-outs that look alike come from different tables or passages of the source.

In the case of `O=C(NC1C(O)CC(O)(C(=O)O)OC1C(O)C(O)CO)c1ccccc1` (stereo not drawn) [Compound 6d], in test [1], the “Average 1” value is 45.2 °C, the “Average 2” value was 45.9 °C and the “Average 3” value turned out to be 45.7 °C. In test [1] (1.25 mM), the “Replicate 1” value was determined as 45.2 °C, the “Replicate 2” value was found to be 45.9 °C and the “Replicate 3” value stood at 45.9 °C. In addition, in test [1] (PmSiaT, 1.25 mM), the “Tm 1” value was determined as 45.1 °C, the Tm2 came out at 45.8 °C and the “Tm 3” value stood at 45.5 °C. The ΔTm in test [1] (setting [3]) was -3.8 °C. For the same compound, the ΔTm in test [1] (setting [4]) is -3.3 °C. Further, the ΔTm in test [1] (setting [5]) is -3.6 °C. In test [1] (setting [6]), the Tm average overall came out at 45.6 °C. The ΔTm at 1250 µM in test [1] (setting [7]) was -3.6 °C. Besides, in test [2], the “Average 1” value stood at 46.2 °C, the “Average 2” value was 45.6 °C, the “Average 3” value was found to be 46.0 °C and the “Replicate 1” value stood at 46.1 °C. In test [2], the “Replicate 2” value is 45.8 °C, the “Replicate 3” value turned out to be 45.6 °C, the “Tm 1” value amounted to 46.2 °C and the “Tm2” value worked out at 45.4 °C. In test [2], the “Tm 3” value was 46.4 °C and the “Overall average (Tm)” value is 45.9 °C.

With `O=C(Cc1ccccc1)NC1C(O)CC(O)(C(=O)O)OC1C(O)C(O)CO` (stereo not drawn) [Compound 6e], in test [1], the “Average 1” value turned out to be 45.4 °C, the “Average 2” value is 46.2 °C and the “Average 3” value was found to be 46.0 °C. In addition, in test [1] (1.25 mM), the “Replicate 1” value was determined as 45.5 °C, the “Replicate 2” value is 46.0 °C and the “Replicate 3” value was 45.9 °C. In addition, in test [1] (PmSiaT, 1.25 mM), the “Tm 1” value turned out to be 45.2 °C, the Tm2 worked out at 46.3 °C and the “Tm 3” value turned out to be 46.1 °C. Further, the ΔTm in test [1] (setting [3]) was -3.6 °C. For the same compound, the ΔTm in test [1] (setting [4]) is -3 °C. Also, the ΔTm in test [1] (setting [5]) was -3.3 °C. In test [1] (setting [6]), the Tm average overall stood at 45.8 °C. Further, the ΔTm at 1250 µM in test [1] (setting [7]) was -3.3 °C. In test [2], the “Average 1” value was 51.2 °C, the “Average 2” value came out at 51.0 °C, the “Average 3” value was found to be 51.4 °C and the “Replicate 1” value is 51.3 °C. Further, in test [2], the “Replicate 2” value amounted to 51.1 °C, the “Replicate 3” value was found to be 51.1 °C, the “Tm 1” value came to 51.2 °C and the “Tm2” value worked out at 51.0 °C. For the same compound, in test [2], the “Tm 3” value turned out to be 51.8 °C and the “Overall average (Tm)” value turned out to be 51.2 °C.

For `O=C(CF)NC1C(O)CC(O)(C(=O)O)OC1C(O)C(O)CO` (stereo not drawn) [Compound 6f], in test [1], the “Average 1” value worked out at 47.4 °C, the “Average 2” value amounted to 47.6 °C, the “Average 3” value turned out to be 47.4 °C and the ΔTm at 1250 µM was -1.7 °C. In test [1] (1.25 mM), the “Replicate 1” value is 47.4 °C, the “Replicate 2” value was found to be 47.6 °C and the “Replicate 3” value was determined as 47.3 °C. Moreover, in test [1] (PmSiaT, 1.25 mM), the “Tm 1” value was 47.4 °C, the Tm2 turned out to be 47.7 °C and the “Tm 3” value was determined as 47.4 °C. Also, in test [1] (setting [6]), the Tm average overall was found to be 47.5 °C. Moreover, in test [2], the “Average 1” value worked out at 52.0 °C, the “Average 2” value was 51.2 °C, the “Average 3” value is 51.9 °C and the “Replicate 1” value is 52.0 °C. For the same compound, in test [2], the “Replicate 2” value stood at 51.2 °C, the “Replicate 3” value was 51.8 °C, the “Tm 1” value is 52.0 °C and the “Tm2” value is 51.2 °C. In addition, in test [2], the “Tm 3” value came out at 52.1 °C and the “Overall average (Tm)” value is 51.7 °C.

In the case of `O=C(CCl)NC1C(O)CC(O)(C(=O)O)OC1C(O)C(O)CO` (stereo not drawn) [Compound 6g], in test [1], the “Average 1” value amounted to 49.8 °C, the “Average 2” value was 49.9 °C and the “Average 3” value was found to be 49.5 °C. Moreover, in test [1] (1.25 mM), the “Replicate 1” value was 49.7 °C, the “Replicate 2” value worked out at 49.9 °C and the “Replicate 3” value is 49.5 °C. Moreover, in test [1] (PmSiaT, 1.25 mM), the “Tm 1” value worked out at 49.9 °C, the Tm2 came out at 49.9 °C and the “Tm 3” value was 49.5 °C. Moreover, the thermal shift (ΔTm) in test [1] (setting [3]) is 0.8 °C. Moreover, the ΔTm in test [1] (setting [4]) amounted to 0.7 °C. For the same compound, the ΔTm in test [1] (setting [5]) came out at 0.2 °C. Moreover, the Tm average overall in test [1] (setting [6]) was 49.7 °C. In test [1] (setting [7]), the ΔTm at 1250 µM was found to be 0.6 °C. In addition, in test [2], the “Average 1” value was found to be 49.0 °C, the “Average 2” value is 49.2 °C, the “Average 3” value was 49.3 °C and the “Replicate 1” value was 49.0 °C. In test [2], the “Replicate 2” value came out at 49.0 °C, the “Replicate 3” value is 48.9 °C, the “Tm 1” value was determined as 49.0 °C and the “Tm2” value came out at 49.4 °C. For the same compound, in test [2], the “Tm 3” value turned out to be 49.7 °C and the “Overall average (Tm)” value worked out at 49.2 °C.

With `[N-]=[N+]=NCC(=O)N[C@H]1[C@H]([C@H](O)[C@H](O)CO)O[C@@](O)(C(=O)O)C[C@@H]1O` [Compound 6h, 5-azidoacetamido-3,5-dideoxy-D-glycero-α-galacto-non-2-ulopyranosonate, reference compound], in test [1], the “Average 1” value was 49.2 °C, the “Average 2” value is 49.0 °C and the “Average 3” value was 49.1 °C. In test [1] (1.25 mM), the “Replicate 1” value was found to be 49.2 °C, the “Replicate 2” value stood at 48.8 °C and the “Replicate 3” value was 49.3 °C. Moreover, in test [1] (PmSiaT, 1.25 mM), the “Tm 1” value worked out at 49.2 °C, the Tm2 is 49.2 °C and the “Tm 3” value came out at 49.0 °C. In addition, the thermal shift (ΔTm) in test [1] (setting [3]) was -0.1 °C. The ΔTm in test [1] (setting [4]) is 0.1 °C. In addition, the ΔTm in test [1] (setting [5]) was determined as 0 °C. In test [1] (setting [6]), the Tm average overall turned out to be 49.1 °C. In test [1] (setting [7]), the ΔTm at 1250 µM came out at 0 °C. For the same compound, in test [2], the “Average 1” value came to 52.8 °C, the “Average 2” value came out at 52.9 °C, the “Average 3” value is 52.8 °C and the “Replicate 1” value was 52.7 °C. In test [2], the “Replicate 2” value is 53.0 °C, the “Replicate 3” value amounted to 52.7 °C, the “Tm 1” value was 52.8 °C and the “Tm2” value stood at 52.7 °C. Also, in test [2], the “Tm 3” value was 52.8 °C and the “Overall average (Tm)” value was determined as 52.8 °C.

Turning to `CSCC(O)C(O)C1OC(O)(C(=O)O)CC(O)C1NC(C)=O` (stereo not drawn) [Compound 8a], in test [1], the “Average 1” value amounted to 45.9 °C, the “Average 2” value is 46.2 °C and the “Average 3” value is 46.1 °C. Besides, in test [1] (1.25 mM), the “Replicate 1” value came to 45.8 °C, the “Replicate 2” value came out at 46.0 °C and the “Replicate 3” value came out at 46.0 °C. Further, in test [1] (PmSiaT, 1.25 mM), the “Tm 1” value worked out at 46.1 °C, the Tm2 turned out to be 46.3 °C and the “Tm 3” value amounted to 46.2 °C. The ΔTm in test [1] (setting [3]) was -3.1 °C. Moreover, in test [1] (setting [4]), the ΔTm is -3 °C. Further, the ΔTm in test [1] (setting [5]) was -3.2 °C. Also, the Tm average overall in test [1] (setting [6]) is 46.1 °C. The ΔTm at 1250 µM in test [1] (setting [7]) is -3.1 °C. In test [2], the “Average 1” value turned out to be 51.0 °C, the “Average 2” value is 49.2 °C, the “Average 3” value is 50.8 °C and the “Replicate 1” value came out at 50.9 °C. Moreover, in test [2], the “Replicate 2” value amounted to 49.2 °C, the “Replicate 3” value is 50.4 °C, the “Tm 1” value is 51.0 °C and the “Tm2” value was 49.3 °C. Moreover, in test [2], the “Tm 3” value came to 51.3 °C and the “Overall average (Tm)” value is 50.3 °C.
